Laboratory results taken from US10745755B2, “Sestrin activators for preventing and/or attenuating skin ageing and/or hydrating the skin and/or for regulating skin pigmentation” (CHANEL PARFUMS BEAUTE, priority 2014, dated 2020).

Tests used:
Type in all cases: cell-based
[1] = system: SESN3; assay: SESN3 immunofluorescence in human skin equivalents; details: versus untreated control, extract last 7 days, retinol last 4 days
Protocol: (§1) Keratinocytes and fibroblasts from juvenile donors were purchased from Promocell. The dermal equivalent consists of a collagen solution containing rat tail collagen type I (BD Biosciences), 10× DMEM medium (Gibco/Invitrogen), sodium bicarbonate (Gibco/Invitrogen) and fibroblasts added into 6 well-culture inserts (BD) and placed in deep 6-well culture plates (BD). After 2 hours, of polymerisation at 37° C., dermal equivalents were equilibrated in supplemented Keratinocyte Growth Medium (KGM2 basal medium+SupplementMix, Promocell) and placed at 37° C., 5% CO2. After 24 hours, suspension of keratinocytes was added over the gel and submerged for 3 days in supplemented Keratinocyte Growth Medium. The inserts were placed at the air liquid interface in Serum-free Keratinocyte Defined Medium (SKDM: SKDM is a high Ca^2+ medium consisting of KGM2 basal medium, transferrin (Sigma), BSA (Sigma) and L-ascorbic acid (Sigma)) for 10 days. 24 hours before culture arrest, skin equivalents were irradiated, in duplicates, with 100 mJ/cm^2 UVB.
(§2) Human skin equivalents were fixed in 10% formalin before embedding in paraffin and cutting into 5 μm-thick sections. Sections were deparaffinized in xylene, rehydrated in ethanol baths, rinsed in deionised water. Antigen retrieval in 10 mM citrate buffer pH6 at 90° C. for 20 minutes was performed before blocking reaction in goat serum 3% for 1 hour. […]

[2] = system: Loricrin; assay: Loricrin immunostaining in human skin equivalents; details: versus untreated control, extract last 7 days, retinol last 4 days
Protocol: as §1, §2

[3] = system: Cytokeratin 10; assay: Cytokeratin 10 immunostaining in human skin equivalents; details: versus untreated control, retinol last 4 days
Protocol: as §1, §2

CC1=C(/C=C/C(C)=C/C=C/C(C)=C/CO)C(C)(C)CCC1 [retinol]
decreased: SESN3 staining intensity [1] | Loricrin immunostaining [2] | Cytokeratin 10 immunostaining [3]
